Measured values published in BindingDB's records for doi:10.1021/jm5003167 (Bristol-Myers Squibb, 2014).

How the values were obtained:
[1] = Antagonist activity at CCR1 receptor in human THP1 cells assessed as inhibition of RANTES-induced chemotaxis after 60 mins
[2] = Antagonist activity at CCR1 receptor in human THP1 cells assessed as inhibition of LKN1-induced chemotaxis after 60 mins
[3] = Antagonist activity at CCR1 receptor in human THP1 cells assessed as inhibition of MIP-1alpha induced chemotaxis after 60 mins
[4] = Antagonist activity at CCR1 receptor in human THP1 cells assessed as inhibition of MPIF1-induced chemotaxis after 60 mins
[5] = Antagonist activity at CCR1 receptor in human THP1 cells assessed as inhibition of MIP-1alpha-induced chemotaxis after 60 mins
[6] = Antagonist activity at CCR1 receptor in human THP1 cells assessed as inhibition of HCC1-induced chemotaxis after 60 mins
[7] = Antagonist activity at CCR1 receptor in human THP1 cells assessed as inhibition of HCC4-induced chemotaxis after 60 mins
[8] = Antagonist activity at CCR1 receptor in human THP1 cells assessed as inhibition of MCP3-induced chemotaxis after 60 mins

SMILES	IC50 [3] [nM]	further results
CC(C)[C@@H](NC(=O)CCC(C)(C)O)C(=O)N1CC[C@](O)(c2ccc(Cl)cc2)C(C)(C)C1	22	–
CC(C)[C@@H](NC(=O)N[C@@H]1CC[C@H](O)C1)C(=O)N1CC[C@](O)(c2ccc(Cl)cc2)C(C)(C)C1	4	–
CC(C)[C@@H](NC(=O)N[C@@H]1CC[C@@H](O)C1)C(=O)N1CC[C@](O)(c2ccc(Cl)cc2)C(C)(C)C1	19	–
CC(C)[C@@H](NC(=O)N[C@H]1CC[C@@H](O)C1)C(=O)N1CC[C@](O)(c2ccc(Cl)cc2)C(C)(C)C1	6	–
CC(C)[C@@H](NC(=O)N[C@H]1CC[C@H](O)C1)C(=O)N1CC[C@](O)(c2ccc(Cl)cc2)C(C)(C)C1	10	–
CC(C)[C@@H](NC(=O)NC1CCCC1)C(=O)N1CC[C@](O)(c2ccc(Cl)cc2)C(C)(C)C1	3	–

Further lines, with some results ahead:

IC50 [3] [nM]	SMILES	further results
6	CC(C)[C@@H](NC(=O)NCC(C)(C)O)C(=O)N1CC[C@](O)(c2ccc(Cl)cc2)C(C)(C)C1	IC50 [1]: 3.3 nM; IC50 [2]: 16 nM; IC50 [4]: 14 nM; IC50 [5]: 5.5 nM; IC50 [6]: 7.5 nM; IC50 [7]: 3.2 nM; IC50 [8]: 9.3 nM
7	CC(C)[C@@H](NC(=O)NC[C@H](C)O)C(=O)N1CC[C@](O)(c2ccc(Cl)cc2)C(C)(C)C1	–
6	CC[C@@H](C)NC(=O)N[C@@H](C(=O)N1CC[C@](O)(c2ccc(Cl)cc2)C(C)(C)C1)C(C)C [US8633226, 897]	–
6	CC(C)[C@@H](NC(=O)NC[C@@H](C)O)C(=O)N1CC[C@](O)(c2ccc(Cl)cc2)C(C)(C)C1	–
